Earlier results as cited in patent US12233205B2, “Thermal modulation of an inhalable medicament” (priority 2014, dated 2025).

Conditions: administered IV

Row | Compound | bioavailability
1 | Nc1nc(NC2CC2)c2ncn([C@H]3C=C[C@@H](CO)C3)c2n1 [Abacavir] | 61-89%
2 | Cc1nnc(SCC2=C(C(=O)O)N3C(=O)[C@@H](NC(=O)Cn4cnnn4)[C@H]3SC2)s1 [Cefazolin] | around 78%
3 | C[C@@H](O)[C@H]1C(=O)N2C(C(=O)O)=C(S[C@@H]3CN[C@H](C(=O)Nc4cccc(C(=O)O)c4)C3)[C@H](C)[C@H]12 [Ertapenem] | around 90%
4 | Gentamicin | around 100%

Same assay, conditions: administered PO

Row | Compound | bioavailability
5 | Nc1nc(NC2CC2)c2ncn([C@H]3C=C[C@@H](CO)C3)c2n1 [Abacavir] | around 83%
6 | Nc1nc2c(ncn2COCCO)c(=O)[nH]1 [Acyclovir] | 10-20%
7 | NC12CC3CC(CC(C3)C1)C2 [Amantadine] | around 86%
8 | CC(=O)Oc1ccccc1C(=O)O [Aspirin] | 61-80%
9 | CC[C@H]1OC(=O)[C@H](C)[C@@H](O[C@H]2C[C@@](C)(OC)[C@@H](O)[C@H](C)O2)[C@H](C)[C@@H](O[C@@H]2O[C@H](C)C[C@H](N(C)C)[C@H]2O)[C@](C)(O)C[C@@H](C)CN(C)[C@H](C)[C@@H](O)[C@]1(C)O [Azithromycin] | around 38%
10 | [H]/N=C(\N/C(=N/[H])NCCCCCCNC(=N)NC(=N)Nc1ccc(Cl)cc1)Nc1ccc(Cl)cc1 [Chlorhexidine] | around 4%
11 | CC[C@H]1OC(=O)[C@H](C)[C@@H](O[C@H]2C[C@@](C)(OC)[C@@H](O)[C@H](C)O2)[C@H](C)[C@@H](O[C@@H]2O[C@H](C)C[C@H](N(C)C)[C@H]2O)[C@](C)(OC)C[C@@H](C)C(=O)[C@H](C)[C@@H](O)[C@]1(C)O [Clarithromycin] | around 55%
12 | Nc1nc(O)c2ncn(COC(CO)CO)c2n1 [Ganciclovir] | around 5%
13 | CC(C)Cc1ccc(C(C)C(=O)O)cc1 (stereo not shown) [Ibuprofen] | 58-98%
14 | NNC(=O)c1ccncc1 [Isoniazid] | around 90%
15 | C[C@H]1COc2c(N3CCN(C)CC3)c(F)cc3c(=O)c(C(=O)O)cn1c23 [Levofloxacin] | around 99%
16 | CN(C)c1ccc(O)c2c1C[C@H]1C[C@H]3[C@H](N(C)C)C(O)=C(C(N)=O)C(=O)[C@@]3(O)C(O)=C1C2=O [Minocycline] | around 90%
17 | CCOc1ccc2ccccc2c1C(=O)N[C@@H]1C(=O)N2[C@@H]1SC(C)(C)[C@@H]2C(=O)O [Nafcillin] | around 50%
18 | CN(C)C(=O)Oc1cccc([N+](C)(C)C)c1 [Neostigmine] | 1-2%
19 | Cc1ccnc2c1NC(=O)c1cccnc1N2C1CC1 [Nevirapine] | 80-94%
20 | CCOC(=O)C1=C[C@@H](OC(CC)CC)[C@H](NC(C)=O)[C@@H](N)C1 [Oseltamivir] | around 75%
21 | CNC[C@H](O)c1cccc(O)c1 [Phenylephrine] | around 38%
22 | Cc1nnc(C(=O)NC(C)(C)c2nc(C(=O)NCc3ccc(F)cc3)c(O)c(=O)n2C)o1 [Raltegravir] | 20-43%
23 | NC(=O)c1ncn([C@@H]2O[C@H](CO)[C@@H](O)[C@H]2O)n1 [Ribavirin] | around 64%
24 | CO[C@H]1/C=C/O[C@@]2(C)Oc3c(C)c(O)c4c(O)c(c(/C=N/N5CCN(C)CC5)c(O)c4c3C2=O)NC(=O)/C(C)=C\C=C\[C@H](C)[C@H](O)[C@@H](C)[C@@H](O)[C@@H](C)[C@H](OC(C)=O)[C@@H]1C [Rifampin] | 90-95%
25 | COc1cccc(C2(O)CCCCC2CN(C)C)c1 (stereo not shown) [Tramadol] | 75-95%
26 | CN[C@H](CC(C)C)C(=O)N[C@H]1C(=O)N[C@@H](CC(N)=O)C(=O)N[C@H]2C(=O)N[C@H]3C(=O)N[C@H](C(=O)N[C@H](C(=O)O)c4cc(O)cc(O)c4-c4cc3ccc4O)[C@H](O)c3ccc(c(Cl)c3)Oc3cc2cc(c3O[C@@H]2O[C@H](CO)[C@@H](O)[C@H](O)[C@H]2O[C@H]2C[C@](C)(N)[C@H](O)[C@H](C)O2)Oc2ccc(cc2Cl)[C@H]1O [Vancomycin] | negligible
27 | Gentamicin | negligible
28 | Penicillin G, V | 30-80%

Same assay, conditions: administered PR

Row | Compound | bioavailability
29 | CO[C@@]1(NC(=O)Cc2cccs2)C(=O)N2C(C(=O)O)=C(COC(N)=O)CS[C@@H]21 [Cefoxitin] | 7-17%

Same assay, conditions: administered as a nasal spray

Row | Compound | bioavailability
30 | CN1CCCC(n2nc(Cc3ccc(Cl)cc3)c3ccccc3c2=O)CC1 (stereo not shown) [Azelastine] | around 40%
31 | CNS(=O)(=O)Cc1ccc2[nH]cc(CCN(C)C)c2c1 [Sumatriptan] | around 25%

Same assay, conditions: administered as an inhalable

Row | Compound | bioavailability
32 | NC[C@H]1O[C@H](O[C@H]2[C@H](O)[C@@H](O[C@H]3O[C@H](CO)[C@@H](O)[C@H](N)[C@H]3O)[C@H](N)C[C@@H]2N)[C@H](N)C[C@@H]1O [Tobramycin] | 1-16.6%

Same assay, conditions: in vivo, im

Row | Compound | bioavailability
33 | CCOC(=O)C1(c2ccccc2)CCN(C)CC1 [Meperidine] | around 57%

Same assay, conditions: in vivo, inhaled or intranasal

Row | Compound | bioavailability
34 | C[C@@H]1C[C@H]2[C@@H]3CCC4=CC(=O)C=C[C@]4(C)[C@@]3(Cl)[C@@H](O)C[C@]2(C)[C@@]1(O)C(=O)CCl [Mometasone] | around 1%

Same assay, conditions: in vivo, po

Row | Compound | bioavailability
35 | CNCC[C@H](Oc1cccc2ccccc12)c1cccs1 [Duloxetine] | 30-80%
36 | Cc1ncc2n1-c1ccc(Cl)cc1C(c1ccccc1F)=NC2 [Midazolam] | around 36%

Same assay, conditions: route not stated

Row | Compound | bioavailability
37 | CC(=O)N[C@H]1[C@H]([C@H](O)[C@H](O)CO)OC(C(=O)O)=C[C@@H]1N=C(N)N [Zanamivir] | 4-17%
